The first test deals with rabbit skeletal muscle myofibril preparations (approximately 90% fast fibers). As to the kind of experiment: Activation of fast skeletal muscle fibers: enzymatic activity of myofibril preparations (PUMA assay system). In kind it is biochemical. Further details: unit not given here. Particulars: detergent treated myofibrils at pCa25%, 500 μM ATP; cells marked †: Mean value. The source says:
Fast fiber activators were identified by measuring the enzymatic activity of muscle myofibril preparations using the proprietary PUMA™ (see, e.g., U.S. Pat. Nos. 6,410,254, 6,743,599, 7,202,051, and 7,378,254) assay system. Myofibril preparations consisted of rabbit skeletal muscle (approximately 90% fast fibers) that had been treated with a detergen (triton X-100) to remove cellular membranes and then homogenized. This preparation retained all of the sarcomeric components in a native conformation and the enzymatic activity was still regulated by calcium. Compounds were tested using a myofibril suspension and a level of calcium sufficient to increase enzymatic activity of the myofibrils to 25% of their maximal rate (termed pCa25%). Enzymatic activity was tracked via a kinetic assay with a UV absorption readout. Hits were identified as compounds that increased the rate of enzymatic activity by greater than 40% at 40 μM. Myofibril preparations are calcium regulated and were screened at a level of calcium sufficient to produce a 25% increase in enzymatic rate. Detergent treated myofibrils were incubated with 500 μM ATP and 40 μM compound and a kinetic read of UV absorbance performed. Data was normalized to control wells.
Take “4-[6-chloro-1-(ethylpropyl)-2-hydroxyimidazo[4,5-b]pyridin-7-yl]benzenecarbonitrile”: the “AC1.4 Median” value was 0.405†.
The same measure, in the same setting: as for “6-chloro-1-(ethylpropyl)-7-(2-fluorophenyl)imidazo[4,5-b]pyridin-2-ol”, the figure is 0.230†; as for “6-chloro-1-(ethylpropyl)-7-(3-fluorophenyl)imidazo[4,5-b]pyridin-2-ol”, 0.248†; as for “6-chloro-1-(ethylpropyl)-7-(4-fluorophenyl)imidazo[4,5-b]pyridin-2-ol”, 0.074†.
Still for that read-out and setting: as for “6-chloro-1-(ethylpropyl)-7-(4-methylphenyl)imidazo[4,5-b]pyridin-2-ol”, the figure is 0.336†; as for “6-chloro-1-(ethylpropyl)-7-(5-fluoro(2-pyridyl))imidazo[4,5-b]pyridin-2-ol”, 0.268†; as for “6-chloro-1-(ethylpropyl)-7-(6-methoxy(2-pyridyl))imidazo[4,5-b]pyridin-2-ol”, 0.562†.
Regarding “6-chloro-1-(ethylpropyl)-7-[4-(trifluoromethyl)phenyl]imidazo[4,5-b]pyridin-2-ol”, the “AC1.4 Median” value was 0.274†.
“6-chloro-7-(3-chlorophenyl)-1-(ethylpropyl)imidazo[4,5-b]pyridin-2-ol”: the “AC1.4 Median” value is reported as 0.330†.
On to “6-chloro-7-(4-chloro-3-fluorophenyl)-1-(ethylpropyl)imidazo[4,5-b]pyridin-2-ol”, for which the “AC1.4 Median” value was 0.116†.
With “6-chloro-7-(4-chlorophenyl)-1-(ethylpropyl)imidazo[4,5-b]pyridin-2-ol”, the “AC1.4 Median” value was 0.074†.
Turning to “6-chloro-7-(5-chloro(2-pyridyl))-1-(ethylpropyl)imidazo[4,5-b]pyridin-2-ol”, the “AC1.4 Median” value is on record as 0.320†.
For “6-chloro-7-(5-chloro(2-thienyl))-1-(ethylpropyl)imidazo[4,5-b]pyridin-2-ol”, the “AC1.4 Median” value is reported as 0.084†.

The same test, now with this note: detergent treated myofibrils at pCa25%, 500 μM ATP; median value (no †).
“1-(ethylpropyl)-7-phenylimidazo[4,5-b]pyridin-2-ol”: the “AC1.4 Median” value is recorded as 2.083.
Regarding “2-[6-chloro-1-(ethylpropyl)-2-hydroxyimidazo[4,5-b]pyridin-7-yl]benzamide”, the “AC1.4 Median” value is 36.169.
In the case of “2-[6-chloro-1-(ethylpropyl)-2-hydroxyimidazo[4,5-b]pyridin-7-yl]benzenecarbonitrile”, the “AC1.4 Median” value is on record as 2.886.
Regarding “3-[6-chloro-1-(ethylpropyl)-2-hydroxyimidazo[4,5-b]pyridin-7-yl]benzenecarbonitrile”, the “AC1.4 Median” value amounted to 3.336.
Regarding “6-[6-chloro-1-(ethylpropyl)-2-hydroxyimidazo[4,5-b]pyridin-7-yl]pyridine-3-carbonitrile”, the “AC1.4 Median” value is reported as 2.892.
The same measure, in the same setting: as for “6-chloro-1-(ethylpropyl)-7-(1-methyl(1H-indazol-5-yl))imidazo[4,5-b]pyridin-2-ol”, the figure is 5.365.
“6-chloro-1-(ethylpropyl)-7-(1-methyl(1H-indazol-6-yl))imidazo[4,5-b]pyridin-2-ol”: the “AC1.4 Median” value was determined as 20.233.
As for “6-chloro-1-(ethylpropyl)-7-(1-methylpyrazol-3-yl)imidazo[4,5-b]pyridin-2-ol”, the “AC1.4 Median” value is on record as 1.7950.
On the same count and under the same terms, as for “6-chloro-1-(ethylpropyl)-7-(1-methylpyrazol-4-yl)imidazo[4,5-b]pyridin-2-ol”, the figure is 17.805.
Consider “6-chloro-1-(ethylpropyl)-7-(2-fluoro-4-methoxyphenyl)imidazo[4,5-b]pyridin-2-ol”, for which the “AC1.4 Median” value is 0.942.
As to “6-chloro-1-(ethylpropyl)-7-(2-methoxy(4-pyridyl))imidazo[4,5-b]pyridin-2-ol”, the “AC1.4 Median” value was 2.808.
Turning to “6-chloro-1-(ethylpropyl)-7-(2-methyl(1,2,3,4-tetraazol-5-yl))imidazo[4,5-b]pyridin-2-ol”, the “AC1.4 Median” value came out at 6.404.
Consider “6-chloro-1-(ethylpropyl)-7-(2-methyl(4-pyridyl))imidazo[4,5-b]pyridin-2-ol”, for which the “AC1.4 Median” value turned out to be 14.091.
On to “6-chloro-1-(ethylpropyl)-7-(2-methylphenyl)imidazo[4,5-b]pyridin-2-ol”, for which the “AC1.4 Median” value is given as 1.688.
“6-chloro-1-(ethylpropyl)-7-(2-pyridyl)imidazo[4,5-b]pyridin-2-ol”: the “AC1.4 Median” value is reported as 1.616.
With “6-chloro-1-(ethylpropyl)-7-(3-fluoro(4-pyridyl))imidazo[4,5-b]pyridin-2-ol”, the “AC1.4 Median” value amounted to 1.709.
Take “6-chloro-1-(ethylpropyl)-7-(3-fluoro-4-methoxyphenyl)imidazo[4,5-b]pyridin-2-ol”: the “AC1.4 Median” value amounted to 2.102.
On to “6-chloro-1-(ethylpropyl)-7-(3-hydroxyphenyl)imidazo[4,5-b]pyridin-2-ol”, for which the “AC1.4 Median” value is listed as 3.021.
For the substance “6-chloro-1-(ethylpropyl)-7-(3-methoxyphenyl)imidazo[4,5-b]pyridin-2-ol”, the “AC1.4 Median” value is reported as 2.001.
Turning to “6-chloro-1-(ethylpropyl)-7-(3-methylphenyl)imidazo[4,5-b]pyridin-2-ol”, the “AC1.4 Median” value is on record as 0.482.
Same read-out and setting: as for “6-chloro-1-(ethylpropyl)-7-(3-pyridyl)imidazo[4,5-b]pyridin-2-ol”, the figure is 8.030; as for “6-chloro-1-(ethylpropyl)-7-(4-methoxyphenyl)imidazo[4,5-b]pyridin-2-ol”, 0.728; as for “6-chloro-1-(ethylpropyl)-7-(4-methyl(2-pyridyl))imidazo[4,5-b]pyridin-2-ol”, 11.301.
On the same count and under the same terms, as for “6-chloro-1-(ethylpropyl)-7-(4-pyridyl)imidazo[4,5-b]pyridin-2-ol”, the figure is 3.015.
Same read-out and setting: as for “6-chloro-1-(ethylpropyl)-7-(5-fluoro(3-pyridyl))imidazo[4,5-b]pyridin-2-ol”, the figure is 4.428; as for “6-chloro-1-(ethylpropyl)-7-(5-methyl(1,2,4-oxadiazol-3-yl))imidazo[4,5-b]pyridin-2-ol”, 4.017.
As to “6-chloro-1-(ethylpropyl)-7-(5-methyl(2-pyridyl))imidazo[4,5-b]pyridin-2-ol”, the “AC1.4 Median” value is 5.708.
As to “6-chloro-1-(ethylpropyl)-7-(5-methylpyrimidin-2-yl)imidazo[4,5-b]pyridin-2-ol”, the “AC1.4 Median” value is reported as 18.694.
Take “6-chloro-1-(ethylpropyl)-7-(6-methoxy(3-pyridyl))imidazo[4,5-b]pyridin-2-ol”: the “AC1.4 Median” value was determined as 2.232.
For “6-chloro-1-(ethylpropyl)-7-(6-methyl(2-pyridyl))imidazo[4,5-b]pyridin-2-ol”, the “AC1.4 Median” value is recorded as 4.048.
Consider “6-chloro-1-(ethylpropyl)-7-(6-methyl(3-pyridyl))imidazo[4,5-b]pyridin-2-ol”, for which the “AC1.4 Median” value is recorded as 12.164.
In the case of “6-chloro-1-(ethylpropyl)-7-[2-(methoxymethyl)phenyl]imidazo[4,5-b]pyridin-2-ol”, the “AC1.4 Median” value worked out at 3.588.
On to “6-chloro-1-(ethylpropyl)-7-[2-(trifluoromethyl)(4-pyridyl)]imidazo[4,5-b]pyridin-2-ol”, for which the “AC1.4 Median” value is given as 3.590.
Regarding “6-chloro-1-(ethylpropyl)-7-[3-(hydroxymethyl)phenyl]imidazo[4,5-b]pyridin-2-ol”, the “AC1.4 Median” value was found to be 14.377.
“6-chloro-1-(ethylpropyl)-7-[3-(methoxymethyl)phenyl]imidazo[4,5-b]pyridin-2-ol”: the “AC1.4 Median” value is 8.109.
For “6-chloro-1-(ethylpropyl)-7-[3-(trifluoromethoxy)phenyl]imidazo[4,5-b]pyridin-2-ol”, the “AC1.4 Median” value is 2.369.
Take “6-chloro-1-(ethylpropyl)-7-[4-(methoxymethyl)phenyl]imidazo[4,5-b]pyridin-2-ol”: the “AC1.4 Median” value is given as 34.746.
In the case of “6-chloro-1-(ethylpropyl)-7-[4-(trifluoromethoxy)phenyl]imidazo[4,5-b]pyridin-2-ol”, the “AC1.4 Median” value was 0.781.
The same measure, in the same setting: as for “6-chloro-1-(ethylpropyl)-7-imidazolylimidazo[4,5-b]pyridin-2-ol”, the figure is 22.2909; as for “6-chloro-1-(ethylpropyl)-7-pyrazol-3-ylimidazo[4,5-b]pyridin-2-ol”, 26.881; as for “6-chloro-1-(ethylpropyl)-7-pyrazol-4-ylimidazo[4,5-b]pyridin-2-ol”, 38.791.
Regarding “6-chloro-1-(ethylpropyl)-7-pyrazolylimidazo[4,5-b]pyridin-2-ol”, the “AC1.4 Median” value came out at 0.3235.
Take “6-chloro-1-(methylethyl)-7-pyrazolylimidazo[4,5-b]pyridin-2-ol”: the “AC1.4 Median” value is 2.0829.
For “6-chloro-7-(2-chloro-4-methoxyphenyl)-1-(ethylpropyl)imidazo[4,5-b]pyridin-2-ol”, the “AC1.4 Median” value stood at 1.898.
On to “6-chloro-7-(2-chloro-4-methylphenyl)-1-(ethylpropyl)imidazo[4,5-b]pyridin-2-ol”, for which the “AC1.4 Median” value is recorded as 0.587.
With “6-chloro-7-(3-chloro(4-pyridyl))-1-(ethylpropyl)imidazo[4,5-b]pyridin-2-ol”, the “AC1.4 Median” value was found to be 4.471.
For the substance “6-chloro-7-(5-chloro(2-pyridyl))-1-(methylethyl)imidazo[4,5-b]pyridin-2-ol”, the “AC1.4 Median” value is on record as 1.781.

Source of the values: patent US7989469B2, “Certain chemical entities, compositions, and methods” (Cytokinetics, Incorporated, priority 2008, dated 2011).
